Experiments:
violet weeds = test: calcium magnesium acetate grains or triclopyr liquid applied to violet weeds in lawn grasses; assay type: in vivo
From the text: (§1) These are not mandatory steps, it simply helps reduce fall off of the grains on the leaves. Alternatively, without the binder and size reduction, the grains could rest by simple placement on the leaves of the weed.

broadleaf weeds = details: granular substance applied to the leaves of the weeds
From the text: A novel unknown use of calcium magnesium acetate is as an effective eliminator of certain broadleaf weeds which invade lawn grasses. When applying the granular substance to the leaves of the weeds, it can produce desired results, very quickly, much faster then many previously known toxic compositions. This method can work in as little as two days.
as §1

[1] = test system: environment, ducks and fish; details: cited from earlier work
testosterone in men = details: by-product of triclopyr; cited from earlier work

Row | Compound | effect on lawn grasses around or near the violet weeds (common lawn grasses; applied by the method (grains isolated on the target weed, limited amount)) | effect on lawn grasses (common lawn grasses; extreme over applications of the granular product) | time in which the grains eliminate / control violet weeds (violet weeds; grains applied to leaves of violet weeds in lawn) | time in which the method works on broadleaf weeds (broadleaf weeds) | toxicity to the environment [1] | treatments needed to affect violet weeds (violet weeds; liquid form applied once a month to lawns with violet weeds) | effect on testosterone in men (testosterone in men)
1 | calcium magnesium acetate | little or no adverse affect | did affect common lawn grasses | two | two | non-toxic to the environment |  | 
2 | O=C(O)COc1nc(Cl)c(Cl)cc1Cl [triclopyr, reference compound] |  |  |  |  | slightly toxic to the environment, ducks and fish | several monthly treatments just to diminish part of the plant | 
3 | tricloropyridine |  |  |  |  |  |  | lower testosterone in men

— US20110232180A1, “Method of applying calcium magnesium acetate to affect growth of unwanted broadleaf weeds in lawn grasses” (priority 2010, published 2011)
